Test results as given in US5521293A (Lever Brothers Company, Division of Conopco, Inc., priority 1995, dated 1996).

Legend:
Format in all cases: physicochemical
[1] = Krafft point of aqueous dispersion of aldonamide; conditions: for Krafft Point (0.1%): 0.1% in water by weight; for Krafft Point (1.0%): 1.0% in water by weight
Experimental: The temperature at and above which surfactants begin to form micelles instead of precipitates is referred to as the Krafft point (Tk) and at this temperature the solubility of a surfactant becomes equal to its CMC (numerical value at which micelles are formed).
The Krafft point was measured by preparing 650 ml of a 0.1% or 1.0% dispersion of aldonamide in water by weight. If the surfactant was soluble at room temperature, the solution was slowly cooled to 0° C. […] (less than zero). If it precipitated out of solution, the temperature at which precipitation occurs was taken as the Krafft point.
If the surfactant was insoluble at :room temperature, the dispersion was slowly heated until the solution became homogeneous. It was then slowly cooled until precipitation occurred. The temperature at which the surfactant precipitates out of solution upon cooling was taken as the Krafft point.

Ross-Miles foam height [2] = test: Ross-Miles foam height; design: key: X: low water solubility. foam height cannot be measured; conditions: Examples 82-83; for Foam Height Final (symbol): after 10 minutes
Experimental: (§1) Since most of the foaming data on surfactants is typically obtained by the Ross-Miles Foam Height Assay (Ross, J. and Miles, G. D. Am Soc. for Testing Material Method D1173-63 Philadelphia, Pa. (1953); Oil & Soap (1958) 62:1260) the foaming ability of these surfactants were acquired using this method.
(§2) In the Ross-Miles method, 200 mL of a surfactant solution contained in a pipette of specified dimensions with a 2.9-mm-i.d. orifice is allowed to fall 90 cm onto 50 mL of the same solution contained in a cylindrical vessel maintained at a given temperature by means of a water jacket. The height of the foam produced in the cylindrical vessel is read immediately after all the solution has run out of the pipette and then again after a given amount of time.
(§3) Using this method, the foam production (initial foam height in mm) and foam stability (final foam height after 10 minutes in mm) were measured at 0.1% aldonamide concentration, 40° C. and 0 ppm (parts per million) hardness. Aldonamides that were not soluble at 40° C. were measured at about 5°-10° C. above their Krafft points.

Water solubility = conditions: in words
Ross-Miles foam height [3] = conditions: 0.1% aldonamide, 40° C. (or about 5°-10° C. above Krafft point if not soluble), 0 ppm hardness; for Foam Height Final: after 10 minutes
Experimental: as §1, §2, §3

Compound | Krafft Point (0.1%) [1] [°C] | Krafft Point (1.0%) [1] [°C] | further results
CCCCCCCCCCCCOC(=O)C(C)NC(=O)[C@H](O)[C@@H](O)[C@H](O)[C@H](O)CO (mixture of isomers) [Y, N-D-Gluconyl Dodecyl DL-Alaninate] | 53 |  | 
CCCCCCCCCCCCNC(=O)[C@H](O)[C@H](O)[C@H](O)CO [A, dodecyl D-ribonamide] | 54 |  | 
CCCCCCCCCCCCOC(=O)CNC(=O)[C@H](O)[C@@H](O)[C@H](O[C@@H]1O[C@H](CO)[C@H](O)[C@H](O)[C@H]1O)[C@H](O)CO [AAA, N-D-lactobionyl dodecyl glycinate] |  | < 0 | 
CCCCCCCCCCCCOC(=O)CCNC(=O)[C@H](O)[C@@H](O)[C@H](O[C@@H]1O[C@H](CO)[C@H](O)[C@H](O)[C@H]1O)[C@H](O)CO [BBB, N-D-lactobionyl dodecyl β-alaninate] |  | < 0 | 
CCCCCCCNC(=O)[C@H](O)[C@@H](O)[C@H](O)[C@H](O)CO [C, C7 D-Gluconamide] | < 0 |  | 
CCCCCCCC/C=C\CCCCCCCCNCCCNC(=O)[C@H](O)[C@@H](O)[C@H](O)[C@H](O)CO [CC, oleylaminopropyl D-gluconamide] | < 0 |  | 
CCCCCCCCNC(=O)[C@H](O)[C@@H](O)[C@H](O)[C@H](O)CO [D, C8 D-Gluconamide] | 12 |  | 
CCCCCCCCCNC(=O)[C@H](O)[C@@H](O)[C@H](O)[C@H](O)CO [E, C9 D-Gluconamide] | 53 |  | 
CCCCCCCCCCCCOCCCNC(=O)[C@H](O)[C@@H](O)[C@H](O)[C@H](O)CO [Entry S, C12 Oxypropyl D-Gluconamide] | 61 |  | 
CCCCCCCCCCNC(=O)[C@H](O)[C@@H](O)[C@H](O)[C@H](O)CO [F, C10 D-Gluconamide] | 75 |  | 
CCCCCCCCCCCCNC(=O)C(O)C(O)C(O)C(O)C(O)C(O)CO [FF, C12 D-Glucooctonamide] | 86 |  | Foam Height Final (symbol) (Ross-Miles foam height [2]): X; Foam Height Initial (symbol) (Ross-Miles foam height [2]): X
CCCCCCCCCCCNC(=O)[C@H](O)[C@@H](O)[C@H](O)[C@H](O)CO [G, C11 D-Gluconamide] | 87 |  | Foam Height Final (symbol) (Ross-Miles foam height [2]): X; Foam Height Initial (symbol) (Ross-Miles foam height [2]): X
CCCCCCCCCCCCNC(=O)[C@H](O)[C@H](O)[C@@H](O)[C@@H](O)[C@H](O)CO [GG, C12 D-Glycero-L-Mannoheptonamide] | > 100 |  | water solubility (Water solubility): Insoluble
CCCCCCCCCCCCNC(=O)[C@H](O)[C@H](O)[C@@H](O)[C@H](O)[C@H](O)CO [HH, C12 D-Glucoheptonamide] | 91 |  | Foam Height Final (symbol) (Ross-Miles foam height [2]): X; Foam Height Initial (symbol) (Ross-Miles foam height [2]): X
CCCCCCCCCCCCNC(=O)[C@@H](O)[C@H](O)[C@@H](O)[C@@H](O)CO [I, C12 L-Gluconamide] | 91 |  | Foam Height Final (symbol) (Ross-Miles foam height [2]): X; Foam Height Initial (symbol) (Ross-Miles foam height [2]): X
CCCCCCCCCCCCNC(=O)[C@H](O)[C@@H](O)[C@@H](O)[C@H](O)CO [J, C12 D-Galactonamide] | > 100 |  | water solubility (Water solubility): Insoluble
CCCCCCCCCCCCNC(=O)[C@@H](O)[C@H](O)[C@H](O)[C@@H](O)CO [K, C12 L-Galactonamide] | > 100 |  | water solubility (Water solubility): Insoluble
CCCCCCCCCCCCOCCCNC(=O)[C@H](O)[C@H](O)[C@@H](O)[C@H](O)[C@H](O)CO [KK, C12 Oxypropyl D-Glucoheptonamide] | 73 |  | 
CCCCCCCCCNC(=O)[C@H](O)[C@@H](O)[C@H](O[C@@H]1O[C@H](CO)[C@H](O)[C@H](O)[C@H]1O)[C@H](O)CO [MM, nonyl D-lactobionamide] |  | 42 | 
CCCCCCCCCCCNC(=O)[C@H](O)[C@@H](O)[C@H](O[C@@H]1O[C@H](CO)[C@H](O)[C@H](O)[C@H]1O)[C@H](O)CO [NN, C11 D-Lactobionamide] |  | 61 | 
CCCCCCCCCCCCNC(=O)[C@H](O)[C@@H](O)[C@H](O[C@@H]1O[C@H](CO)[C@H](O)[C@H](O)[C@H]1O)[C@H](O)CO [OO, C12 D-Lactobionamide] |  | 38 | 
CCCCC(CC)COCCCNC(=O)[C@H](O)[C@@H](O)[C@H](O)[C@H](O)CO (stereo partly drawn) [P, Ethylhexyloxypropyl D-Gluconamide] | < 0 |  | 
CCCCCCCCCCCCCNC(=O)[C@H](O)[C@@H](O)[C@H](O[C@@H]1O[C@H](CO)[C@H](O)[C@H](O)[C@H]1O)[C@H](O)CO [PP, C13 D-Lactobionamide] |  | 70 | 
CCCCCCCCCCCCCCNC(=O)[C@H](O)[C@@H](O)[C@H](O[C@@H]1O[C@H](CO)[C@H](O)[C@H](O)[C@H]1O)[C@H](O)CO [QQ, C14 D-Lactobionamide] |  | 18 | 
CCCCCCCCCCCCCCNC(=O)[C@H](O)[C@@H](O)[C@H](O[C@H]1O[C@H](CO)[C@@H](O)[C@H](O)[C@H]1O)[C@H](O)CO [RR, C14 D-Maltobionamide] |  | 46 | 

Compound | Krafft Point (0.1%) [1] [°C] | Krafft Point (1.0%) [1] [°C] | further results
CCCCCCCCCCCCCCCCNC(=O)[C@H](O)[C@@H](O)[C@H](O[C@@H]1O[C@H](CO)[C@H](O)[C@H](O)[C@H]1O)[C@H](O)CO [TT, C16 D-Lactobionamide] |  | 64 | 
CCCCCCCCCCCCCCOCCCNC(=O)[C@H](O)[C@@H](O)[C@H](O)[C@H](O)CO [V, C14 Oxypropyl D-Gluconamide] | 53 |  | 
CCCCCCCCCCCCOC(=O)CNC(=O)[C@H](O)[C@@H](O)[C@H](O)[C@H](O)CO [W, N-D-gluconyl dodecyl glycinate] | 63 |  | 
CCCCCCCCCCCCOCCCNC(=O)[C@H](O)[C@@H](O)[C@H](O[C@@H]1O[C@H](CO)[C@H](O)[C@H](O)[C@H]1O)[C@H](O)CO [WW, dodecyloxypropyl D-lactobionamide] |  | < 0 | 
CCCCCCCCCCCC(=O)OCCNC(=O)[C@H](O)[C@@H](O)[C@H](O)[C@H](O)CO [X, N-D-gluconyl dodecyl ester of ethanolamine] | 63 |  | 
CCCCCCCCCCCCOCCCNC(=O)[C@H](O)[C@@H](O)[C@H](O[C@H]1O[C@H](CO)[C@@H](O)[C@H](O)[C@H]1O)[C@H](O)CO [XX, dodecyloxypropyl D-maltobionamide] |  | < 0 | 
CCCCCCCCCCCCOCCOCCOC(=O)CNC(=O)[C@H](O)[C@@H](O)[C@H](O)[C@H](O)CO [Z, N-D-Gluconyl Dodecyldi(oxyethyl) Glycinate] | < 0 |  | 
CCCCCCCCCCCCCCOCCCNC(=O)[C@H](O)[C@@H](O)[C@H](O[C@@H]1O[C@H](CO)[C@H](O)[C@H](O)[C@H]1O)[C@H](O)CO [ZZ, tetradecyloxypropyl D-lactobionamide] |  | < 0 | 
C8 /C10 Oxypropyl D-Glucoheptonamide [II] | 60 |  | Foam Height Final (Ross-Miles foam height [3]): 90 mm; Foam Height Initial (Ross-Miles foam height [3]): 221 mm
C12 -C15 Oxypropyl D-Glucoheptonamide [LL] | 68 |  | Foam Height Final (Ross-Miles foam height [3]): 97 mm; Foam Height Initial (Ross-Miles foam height [3]): 239 mm
Iso C10 Oxypropyl D-Glucoheptonamide [JJ] | 18 |  | Foam Height Final (Ross-Miles foam height [3]): 204 mm; Foam Height Initial (Ross-Miles foam height [3]): 215 mm
Iso C10 Oxypropyl D-Gluconamide | < 0 |  | Foam Height Final (Ross-Miles foam height [3]): 206 mm; Foam Height Initial (Ross-Miles foam height [3]): 213 mm
Iso C13 Oxypropyl D-Gluconamide [T] | < 15 |  | 
Iso C13 Oxypropylaminopropyl D-Gluconamide [DD] | < 0 |  | Foam Height Final (Ross-Miles foam height [3]): 178 mm
cocoaminopropyl D-gluconamide [AA] | 18 |  | 
cocoaminopropyl D-lactobionamide [CCC] |  | < 0 | 
dodecyl to pentadecyloxypropyl D-gluconamide | 58 |  | 
dodecyl to pentadecyloxypropyl D-lactobionamide [YY] |  | < 0 | 
dodecyl to pentadecyloxypropylaminopropyl D-gluconamide [EE] | < 0 |  | 
dodecyl to pentadecyloxypropylaminopropyl D-lactobionamide [EEE] |  | < 0 | 
octyl/decyloxypropyl D-lactobionamide [VV] |  | < 0 | 
octyl/decyloxypropyl D-ribonamide | 10 |  | 
oleylaminopropyl D-lactobionamide [DDD] |  | < 0 | Foam Height Initial (Ross-Miles foam height [3]): 169 mm
soyaaminopropyl D-gluconamide [BB] | < 18 |  | 
